Data: ChEMBL document CHEMBL1148941, “A new glucosyl feruloyl quinic acid as a potential marker for roots and rhizomes of goldenseal, Hydrastis canadensis” (2004)

Tested on: Staphylococcus aureus
Test: Antimicrobial activity against methicillin-resistant Staphylococcus aureus 1126 after 24 hrs
Assay type: functional

Compound | MIC [µg/mL]
COc1cc(/C=C/C(=O)O[C@@H]2C[C@](O)(C(=O)O)C[C@@H](O)[C@H]2O)ccc1O[C@@H]1O[C@H](CO)[C@@H](O)[C@H](O)[C@H]1O | > 1000
COc1ccc2cc3[n+](cc2c1OC)CCc1cc2c(cc1-3)OCO2.[Cl-] [BERBERINE CHLORIDE] | 60
